Experiment: xn = mol fraction of the nth substance listed

CCOS(=O)(=O)[O-].CC[n+]1ccn(C)c1 + O
Conditions	electrical conductivity [S/m]	viscosity [mPa·s]
283.15 K, 101 kPa, x2 = 0.1966	–	136.9
283.15 K, 101 kPa, x2 = 0.6124	–	32.65
288.15 K, 100 kPa, x1 = 0.0005131	–	1.163
288.15 K, 100 kPa, x1 = 0.0008362	–	1.177
288.15 K, 100 kPa, x1 = 0.001227	–	1.193
288.15 K, 100 kPa, x1 = 0.002025	–	1.227
288.15 K, 100 kPa, x1 = 0.002516	–	1.25
288.15 K, 100 kPa, x1 = 0.003482	–	1.292
288.15 K, 100 kPa, x1 = 0.00456	–	1.342
288.15 K, 100 kPa, x1 = 0.006613	–	1.426
288.15 K, 100 kPa, x1 = 0.008007	–	1.491
288.15 K, 100 kPa, x1 = 0.009969	–	1.577
288.15 K, 100 kPa, x1 = 0.01406	–	1.777
288.15 K, 100 kPa, x1 = 0.0162	–	1.889
293.15 K, 100 kPa, x1 = 0.0005131	–	1.012
293.15 K, 100 kPa, x1 = 0.0008362	–	1.024
293.15 K, 100 kPa, x1 = 0.002516	–	1.092
293.15 K, 100 kPa, x1 = 0.003482	–	1.129
293.15 K, 100 kPa, x1 = 0.00456	–	1.171
293.15 K, 100 kPa, x1 = 0.006613	–	1.247
293.15 K, 100 kPa, x1 = 0.008007	–	1.295
293.15 K, 100 kPa, x1 = 0.009969	–	1.365
293.15 K, 100 kPa, x1 = 0.01406	–	1.508
293.15 K, 100 kPa, x1 = 0.0162	–	1.597
293.15 K, 101 kPa, x2 = 0.0023	–	133.9
293.15 K, 101 kPa, x2 = 0.1225	–	99.1
298.15 K, 100 kPa, x1 = 0.0005131	–	0.9026
298.15 K, 100 kPa, x1 = 0.0008362	–	0.9136
298.15 K, 100 kPa, x1 = 0.001227	–	0.929
298.15 K, 100 kPa, x1 = 0.002025	–	0.9545
298.15 K, 100 kPa, x1 = 0.002516	–	0.9707
298.15 K, 100 kPa, x1 = 0.003482	–	1.004
298.15 K, 100 kPa, x1 = 0.00456	–	1.039
298.15 K, 100 kPa, x1 = 0.006613	–	1.1
298.15 K, 100 kPa, x1 = 0.008007	–	1.141
298.15 K, 100 kPa, x1 = 0.009969	–	1.201
298.15 K, 100 kPa, x1 = 0.01406	–	1.322
298.15 K, 100 kPa, x1 = 0.0162	–	1.392
298.15 K, 101 kPa, x1 = 0.003	0.74	–
298.15 K, 101 kPa, x1 = 0.047	4	–
298.15 K, 101 kPa, x2 = 0.1608	–	70
298.15 K, 101.3 kPa, x1 = 0.01871	3.26	–
298.15 K, 101.3 kPa, x2 = 0	0.398	–
298.15 K, 101.3 kPa, x2 = 0.8489	3.85	–
298.15 K, 101.3 kPa, x2 = 0.9291	4.45	–
298.15 K, 101.3 kPa, x2 = 0.9684	3.95	–
298.15 K, 101.3 kPa, x2 = 0.9752	3.66	–
303.15 K, 100 kPa, x1 = 0.0005131	–	0.8072
303.15 K, 100 kPa, x1 = 0.0008362	–	0.8175
303.15 K, 100 kPa, x1 = 0.001227	–	0.8288
303.15 K, 100 kPa, x1 = 0.002025	–	0.8498
303.15 K, 100 kPa, x1 = 0.002516	–	0.8628
303.15 K, 100 kPa, x1 = 0.003482	–	0.8878
303.15 K, 100 kPa, x1 = 0.00456	–	0.9163
303.15 K, 100 kPa, x1 = 0.006613	–	0.9752
303.15 K, 100 kPa, x1 = 0.008007	–	1.01
303.15 K, 100 kPa, x1 = 0.01406	–	1.156
308.15 K, 100 kPa, x1 = 0.0005131	–	0.7285
308.15 K, 100 kPa, x1 = 0.0008362	–	0.7368
308.15 K, 100 kPa, x1 = 0.001227	–	0.7453
308.15 K, 100 kPa, x1 = 0.002025	–	0.7648
308.15 K, 100 kPa, x1 = 0.002516	–	0.774
308.15 K, 100 kPa, x1 = 0.003482	–	0.7947
308.15 K, 100 kPa, x1 = 0.00456	–	0.8202
308.15 K, 100 kPa, x1 = 0.006613	–	0.8682
308.15 K, 100 kPa, x1 = 0.008007	–	0.8953
308.15 K, 100 kPa, x1 = 0.009969	–	0.9332
308.15 K, 100 kPa, x1 = 0.01406	–	1.02
308.15 K, 100 kPa, x1 = 0.0162	–	1.066
313.15 K, 100 kPa, x1 = 0.0005131	–	0.6616
313.15 K, 100 kPa, x1 = 0.0008362	–	0.669
313.15 K, 100 kPa, x1 = 0.001227	–	0.6761
313.15 K, 100 kPa, x1 = 0.002025	–	0.6922
313.15 K, 100 kPa, x1 = 0.002516	–	0.7008
313.15 K, 100 kPa, x1 = 0.003482	–	0.7189
313.15 K, 100 kPa, x1 = 0.00456	–	0.7368
313.15 K, 100 kPa, x1 = 0.006613	–	0.7779
313.15 K, 100 kPa, x1 = 0.008007	–	0.8031
313.15 K, 100 kPa, x1 = 0.009969	–	0.8366
313.15 K, 100 kPa, x1 = 0.01406	–	0.9075
313.15 K, 100 kPa, x1 = 0.0162	–	0.9429
313.15 K, 101 kPa, x1 = 0.003	0.97	–
313.15 K, 101 kPa, x1 = 0.008	2.5	–
313.15 K, 101 kPa, x1 = 0.013	3.4	–
313.15 K, 101 kPa, x1 = 0.019	3.9	–
313.15 K, 101 kPa, x1 = 0.151	4.7	–
313.15 K, 101 kPa, x1 = 0.642	1.4	–
318.15 K, 100 kPa, x1 = 0.0005131	–	0.6014
318.15 K, 100 kPa, x1 = 0.0008362	–	0.6088
318.15 K, 100 kPa, x1 = 0.001227	–	0.6154
318.15 K, 100 kPa, x1 = 0.002025	–	0.6285
318.15 K, 100 kPa, x1 = 0.002516	–	0.6341
318.15 K, 100 kPa, x1 = 0.003482	–	0.6498
318.15 K, 100 kPa, x1 = 0.00456	–	0.6693
318.15 K, 100 kPa, x1 = 0.006613	–	0.6989
318.15 K, 100 kPa, x1 = 0.008007	–	0.7189
318.15 K, 100 kPa, x1 = 0.009969	–	0.7489
318.15 K, 100 kPa, x1 = 0.01406	–	0.8092
318.15 K, 100 kPa, x1 = 0.0162	–	0.8249
323.15 K, 100 kPa, x1 = 0.0005131	–	0.5543
323.15 K, 100 kPa, x1 = 0.0008362	–	0.5575
323.15 K, 100 kPa, x1 = 0.001227	–	0.5629
323.15 K, 100 kPa, x1 = 0.002025	–	0.5726
323.15 K, 100 kPa, x1 = 0.002516	–	0.5798
323.15 K, 100 kPa, x1 = 0.003482	–	0.592
323.15 K, 100 kPa, x1 = 0.00456	–	0.6071
323.15 K, 100 kPa, x1 = 0.006613	–	0.6309
323.15 K, 100 kPa, x1 = 0.008007	–	0.6496
323.15 K, 100 kPa, x1 = 0.009969	–	0.672
323.15 K, 100 kPa, x1 = 0.01406	–	0.7192
323.15 K, 100 kPa, x1 = 0.0162	–	0.7349
323.15 K, 101 kPa, x2 = 0.427	–	14.57
328.15 K, 100 kPa, x1 = 0.0005131	–	0.5096
328.15 K, 100 kPa, x1 = 0.0008362	–	0.5125
328.15 K, 100 kPa, x1 = 0.001227	–	0.5161
328.15 K, 100 kPa, x1 = 0.002025	–	0.5251
328.15 K, 100 kPa, x1 = 0.002516	–	0.5307
328.15 K, 100 kPa, x1 = 0.003482	–	0.5404
328.15 K, 100 kPa, x1 = 0.00456	–	0.5521
328.15 K, 100 kPa, x1 = 0.006613	–	0.5713
343.15 K, 101 kPa, x2 = 0.0023	–	19.63
343.15 K, 101 kPa, x2 = 0.1966	–	14.47
343.15 K, 101 kPa, x2 = 0.427	–	8.918

Source: the CheMixHub ionic liquid set
